{"source": "patent US8063022B1", "about": "“Methods for preventing formation of inhibitory antibodies in the setting of gene therapy” (priority 1999, dated 2011)", "key": {"[1]": {"test_system": "Hemophilia B knockout mice", "format": "in vivo, mouse", "details": "for Bethesda titer of AAV-F.IX treated mice: values of individual mice; for correction of the aPTT (in words): hemophilia B mice injected with AAV-mF.IX, with or without immunomodulation", "method": "A cohort of six mice were injected intramuscularly with an adeno-associated virus (AAV) vector encoding the murine F.IX transgene (total dose 1×10^11 vector genomes/mouse). Mice were bled at monthly intervals via tail vein transection, and clotting times of plasma were measured by aPTT assay. […] Two other cohorts of mice received immunomodulation around the time of vector administration in an effort to suppress inhibitor formation. One cohort (n=4) received anti-CD40L antibody at a total dose of 0.4 mg per mouse given in four divided doses (0.1 mg at days -3, 0, 3, 6) while the other cohort received cyclophosphamide (CYP, n=4) at doses of 50 mg/kg per mouse biweekly at four time points.\n(§1) Hemophilia B knockout mice were injected intramuscularly with AAV mF.IX (1×10^11) at day 0, without or with immunomodulation therapy. The mice were bled at monthly time points in citrate. The assays which were performed included a clotting based-apTT (measure of correction of hemostatic defect) assay and Bethesda titer (1 BU defined as 50% residual FIX in a 2 hour 50:50 mix). In addition, antibody assays, Western blot analysis and ELISA assays were performed. The immunomodulatory strategies used to address formation of antibodies to the transgene product were as follows: […]"}, "[2]": {"test_system": "Hemophilia B knockout mice", "assay": "Western blot for antibody to murine F.IX in hemophilic mice injected with AAV-mF.IX", "format": "in vivo, mouse", "details": "up to five months of observation", "method": "as §1"}}, "note": "Like-named read-outs stand apart in the source and are kept apart here.", "data": [{"smiles": "O=P1(N(CCCl)CCCl)NCCCO1", "note": "(centres unmarked) [CYP, cyclophosphamide]", "values": [{"measurement": "Bethesda titer of AAV-F.IX treated mice", "setting": "[1]; 1 month after vector", "result": "0/0/0"}, {"measurement": "Bethesda titer of AAV-F.IX treated mice", "setting": "[1]; 2 months after vector", "result": "0/0/0"}, {"measurement": "period over which aPTT correction was maintained", "setting": "[1]; after vector injection", "result": "greater than ten months"}, {"measurement": "aPTT", "setting": "[1]; all mice at one month after vector, normal 22-39 s", "result": "28.9 to 30.9", "unit": "s"}, {"measurement": "animals with no evidence of inhibitor antibody formation", "setting": "[1]; four doses at two week intervals, at least five months after vector", "result": "3/3"}, {"measurement": "correction of the aPTT (in words)", "setting": "[1]", "result": "nearly complete correction"}, {"measurement": "correction of the aPTT (in words)", "setting": "[1]; listed as cyclophosphamide", "result": "sustained correction of the aPTT"}, {"measurement": "antibody to murine F.IX on Western blot (in words)", "setting": "[2]", "result": "did not develop antibodies"}]}]}
